21 compounds from US8541410B2, “Sulfur substituted sulfonylaminocarboxylic acid N-arylamides, their preparation, their use and pharmaceutical preparations comprising them” (Sanofi-aventis Deutschland GmbH, priority 1998, dated 2013) can be followed below.

Each structure is given as a SMILES string.

The test deals with T1, soluble guanylate cyclase (sGC) (Bos taurus, UniProt P16068).
T1 construct: The sGC which was employed had been isolated from bovine lung; from tissue; host or cells: bovine lung
T1 sequence (P16068 1-619): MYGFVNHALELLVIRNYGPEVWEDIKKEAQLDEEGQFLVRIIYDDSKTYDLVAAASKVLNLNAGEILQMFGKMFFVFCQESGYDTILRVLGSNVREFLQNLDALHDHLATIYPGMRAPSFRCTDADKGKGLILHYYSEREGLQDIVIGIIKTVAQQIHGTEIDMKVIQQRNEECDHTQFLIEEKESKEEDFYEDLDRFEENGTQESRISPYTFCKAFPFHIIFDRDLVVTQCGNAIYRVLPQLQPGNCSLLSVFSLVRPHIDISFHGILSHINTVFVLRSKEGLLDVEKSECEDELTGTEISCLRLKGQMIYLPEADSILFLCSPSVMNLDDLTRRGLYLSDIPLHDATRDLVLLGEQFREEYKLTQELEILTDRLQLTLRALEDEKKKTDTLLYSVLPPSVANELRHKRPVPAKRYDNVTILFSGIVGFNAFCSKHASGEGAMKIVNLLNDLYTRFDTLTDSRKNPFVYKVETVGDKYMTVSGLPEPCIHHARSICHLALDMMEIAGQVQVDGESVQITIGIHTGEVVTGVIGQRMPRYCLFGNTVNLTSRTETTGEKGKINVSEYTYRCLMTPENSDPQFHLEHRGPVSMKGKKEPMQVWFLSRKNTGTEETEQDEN
T1 sequence (P19687 1-691 partner): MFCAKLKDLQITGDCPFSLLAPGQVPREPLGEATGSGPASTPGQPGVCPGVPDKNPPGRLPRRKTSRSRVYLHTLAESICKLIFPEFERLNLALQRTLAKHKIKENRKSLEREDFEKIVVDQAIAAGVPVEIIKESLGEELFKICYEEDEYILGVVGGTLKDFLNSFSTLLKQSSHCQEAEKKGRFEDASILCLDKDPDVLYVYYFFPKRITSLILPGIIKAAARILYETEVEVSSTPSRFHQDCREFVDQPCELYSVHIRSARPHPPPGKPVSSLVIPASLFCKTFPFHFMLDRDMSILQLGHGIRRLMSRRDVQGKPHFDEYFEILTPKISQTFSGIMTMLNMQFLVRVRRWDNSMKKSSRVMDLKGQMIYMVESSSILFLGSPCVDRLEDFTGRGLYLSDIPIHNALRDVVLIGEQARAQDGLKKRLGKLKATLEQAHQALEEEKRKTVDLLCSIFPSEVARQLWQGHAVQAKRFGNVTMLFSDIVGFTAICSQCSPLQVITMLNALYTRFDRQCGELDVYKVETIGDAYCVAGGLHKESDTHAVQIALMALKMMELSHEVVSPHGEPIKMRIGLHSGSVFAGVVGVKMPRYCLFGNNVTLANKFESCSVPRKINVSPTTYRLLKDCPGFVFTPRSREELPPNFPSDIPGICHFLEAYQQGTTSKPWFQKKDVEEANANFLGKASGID
Briefly: Activation of the soluble guanylate cyclase (cGMP enzyme immunoassay). In kind it is biochemical, bovine. The settings on record: concentration c 50 μM; n-fold stimulation of basal enzyme activity. The procedure:
The activation of the soluble guanylate cyclase (sGC) which catalyzes the conversion of guanosine triphosphate (GTP) into cyclic guanosine monophosphate (cGMP) and pyrophosphate, by the compounds according to the invention was quantified with the aid of an enzyme immunoassay (EIA) from Amersham. For this purpose the substances to be tested were initially incubated with sGC in microtiter plates, and the amount of the cGMP formed was then determined.
The sGC which was employed had been isolated from bovine lung (see Methods in Enzymology, Volume 195, p. 377). The test solutions (100 μl per well) contained 50 mM triethanolamine (TEA) buffer (pH 7.5), 3 mM MgCl2, 3 mM reduced glutathione (GSH), 0.1 mM GTP, 1 mM 3-isobutyl-1-methylxanthine (IBMX), suitably diluted enzyme solution and the substance to be tested or, in the control experiments, the solvent. The substances to be tested were dissolved in dimethyl sulfoxide (DMSO) and the solution was diluted with DMSO/water, so that the final concentration (c) of the substance to be tested in the test solution had the value indicated in the table. The DMSO concentration in the test solution was 5% (v/v). The reaction was initiated by addition of the sGC. The reaction mixture was incubated at 37° C. for 15 to 20 minutes and then stopped by ice-cooling and addition of the stop reagent (50 mM EDTA, pH 8.0). An aliquot of 50 μl was taken and used for determining the cGMP content using the acetylation protocol of the Amersham cGMP-EIA kit. The absorption of the samples was measured at 450 nm (reference wavelength 620 nm) in a microtiter plate reader. The cGMP concentration was determined using a standard curve which was obtained under the same test conditions. The activation of sGC by a test substance is given as the n-fold stimulation of the basal enzyme activity which was found in the control experiments (using solvent instead of test substance) (calculated using the formula n-fold stimulation=[cGMP]test substance/[cGMP]control).
With `CSc1ccc(NC(=O)c2cc(Cl)ccc2NS(=O)(=O)c2ccc(Cl)cc2)cc1` [Example 23, 5-Chloro-2-(4-chloro-phenylsulfonylamino)-N-(4-methylmercapto-phenyl)-benzamide], the n-fold stimulation turned out to be 14.7. With `O=C(Nc1ccc(S(=O)(=O)N2CCSCC2)cc1)c1cc(Cl)ccc1NS(=O)(=O)c1ccc(Cl)cc1` [Example 63, 5-Chloro-2-(4-chloro-phenylsulfonylamino)-N-(4-(thiomorpholine-4-sulfonyl)-phenyl)-benzamide] the figure was 33.9; with `CN1CCN(S(=O)(=O)c2ccc(NC(=O)c3cc(Cl)ccc3NS(=O)(=O)c3ccc(Cl)cc3)cc2)CC1` [Example 64, 5-Chloro-2-(4-chloro-phenylsulfonylamino)-N-(4-(4-methyl-piperazine-1-sulfonyl)-phenyl)-benzamide], 23.9. `CC1CN(S(=O)(=O)c2ccc(NC(=O)c3cc(Cl)ccc3NS(=O)(=O)c3ccc(Cl)cc3)cc2)CC(C)O1` (stereo not drawn) [Example 65, 5-Chloro-2-(4-chloro-phenylsulfonylamino)-N-(4-(2,6-dimethyl-morpholine-4-sulfonyl)-phenyl)-benzamide] displayed a n-fold stimulation of 24.6. In turn, `C[C@@H]1CN(S(=O)(=O)c2ccc(NC(=O)c3cc(Cl)ccc3NS(=O)(=O)c3ccc(Cl)cc3)cc2)C[C@H](C)O1` [Example 66, 5-Chloro-2-(4-chloro-phenylsulfonylamino)-N-(4-(cis-2,6-dimethyl-morpholine-4-sulfonyl)-phenyl)-benzamide] showed a n-fold stimulation of 33. With `O=C(Nc1ccc(S(=O)(=O)N2CCC(O)CC2)cc1)c1cc(Cl)ccc1NS(=O)(=O)c1ccc(Cl)cc1` [Example 67, 5-Chloro-2-(4-chloro-phenylsulfonylamino)-N-(4-(4-hydroxy-piperidine-1-sulfonyl)-phenyl)-benzamide] the figure was 29.6; with `O=C(Nc1ccc(S(=O)(=O)N2CCC3(CC2)OCCO3)cc1)c1cc(Cl)ccc1NS(=O)(=O)c1ccc(Cl)cc1` [Example 68, 5-Chloro-2-(4-chloro-phenylsulfonylamino)-N-(4-(1,4-dioxa-8-aza-spiro[4.5]decane-8-sulfonyl)-phenyl)-benzamide], 12.1; with `O=C(Nc1ccc(S(=O)(=O)N2CCOCC2)cc1)c1cc(Cl)ccc1NS(=O)(=O)c1ccc(Cl)c(Cl)c1` [Example 69, 5-Chloro-2-(3,4-dichloro-phenylsulfonylamino)-N-(4-(morpholine-4-sulfonyl)-phenyl)-benzamide], 28.3.

Compound `O=C(Nc1ccc(S(=O)(=O)N2CCSCC2)cc1)c1cc(Cl)ccc1NS(=O)(=O)c1ccc(Cl)c(Cl)c1` [Example 70, 5-Chloro-2-(3,4-dichloro-phenylsulfonylamino)-N-(4-(thiomorpholine-4-sulfonyl)-phenyl)-benzamide] came in with a n-fold stimulation of 25.1.

As for `CN1CCN(S(=O)(=O)c2ccc(NC(=O)c3cc(Cl)ccc3NS(=O)(=O)c3ccc(Cl)c(Cl)c3)cc2)CC1` [Example 71, 5-Chloro-2-(3,4-dichloro-phenylsulfonylamino)-N-(4-(b4-methyl-piperazine-1-sulfonyl)-phenyl)-benzamide], the n-fold stimulation was found to be 13.4. `COc1cc(NS(=O)(=O)c2ccc(Cl)cc2)c(C(=O)Nc2ccc(S(=O)(=O)N3CCOCC3)cc2)cc1OC` [Example 72, 2-(4-Chloro-phenylsulfonylamino)-4,5-dimethoxy-N-(4-(morpholine-4-sulfonyl)-phenyl)-benzamide] showed a n-fold stimulation of 27.

As to `O=C(Nc1ccc(S(=O)(=O)N2CCN(CCO)CC2)cc1)c1cc(Cl)ccc1NS(=O)(=O)c1ccc(Cl)cc1` [Example 73, 5-Chloro-2-(4-chloro-phenylsulfonylamino)-N-(4-(4-(2-hydroxy-ethyl)-piperazine-1-sulfonyl)-phenyl)-benzamide], the n-fold stimulation is 16.5. With `CCN(CC)S(=O)(=O)c1ccc(NC(=O)c2cc(Cl)ccc2NS(=O)(=O)c2ccc(Cl)cc2)cc1` [Example 75, 5-Chloro-2-(4-chloro-phenylsulfonylamino)-N-(4-diethylsulfamoyl-phenyl)-benzamide], the n-fold stimulation is given as 5.1. Next, `O=C(Nc1ccc(S(=O)(=O)N2CCCCC2)cc1)c1cc(Cl)ccc1NS(=O)(=O)c1ccc(Cl)cc1` [Example 76, 5-Chloro-2-(4-chloro-phenylsulfonylamino)-N-(4-(piperidine-1-sulfonyl)-phenyl)-benzamide]: 10.6; `COCCNS(=O)(=O)c1ccc(NC(=O)c2cc(Cl)ccc2NS(=O)(=O)c2ccc(Cl)cc2)cc1` [Example 77, 5-Chloro-2-(4-chloro-phenylsulfonylamino)-N-(4-(2-methoxy-ethylsulfamoyl)-phenyl)-benzamide]: 5.9; `O=C(Nc1ccc(S(=O)(=O)N2CCOCC2)cc1)c1sccc1NS(=O)(=O)c1ccc(Cl)cc1` [Example 79, 3-(4-Chloro-phenylsulfonylamino)-N-(4-(morpholine-4-sulfonyl)-phenyl)-thiophene-2-carboxamide]: 15.4. With `O=C(Nc1ccc(S(=O)(=O)N2CCSCC2)cc1)c1sccc1NS(=O)(=O)c1ccc(Cl)cc1` [Example 84, 3-(4-Chloro-phenylsulfonylamino)-N-(4-(thiomorpholine-4-sulfonyl)-phenyl)-thiophene-2-carboxamide] the figure was 23.7; with `Cc1ccc(NS(=O)(=O)c2ccc(Cl)cc2)c(C(=O)Nc2ccc(S(=O)(=O)N3CCSCC3)cc2)c1` [Example 86, 2-(4-Chloro-phenylsulionylamino)-5-methyl-N-(4-(thiomorpholine-4-sulfonyl)-phenyl)-benzamide], 32.9; with `COc1cc(NS(=O)(=O)c2ccc(Cl)cc2)c(C(=O)Nc2ccc(S(=O)(=O)N3CCN(C)CC3)cc2)cc1OC` [Example 87, 2-(4-Chloro-phenylsulfonylamino)-4,5-dimethoxy-N-(4-(4-methyl-piperazine-1-sulfonyl)-phenyl)-benzamide], 12.5.

`COc1cc(NS(=O)(=O)c2ccc(Cl)cc2)c(C(=O)Nc2ccc(S(=O)(=O)N3CCC(O)CC3)cc2)cc1OC` [Example 89, 2-(4-Chloro-phenylsulfonylamino)-N-(4-(4-hydroxy-piperidine-1-sulfonyl)-phenyl)-4,5-dimethoxy-benzamide] returned a n-fold stimulation of 11.6. In turn, `Cc1nn(C)c(Cl)c1S(=O)(=O)Nc1ccc(Cl)cc1C(=O)Nc1ccc(S(=O)(=O)N2CCSCC2)cc1` [Example 124, 5-Chloro-2-(5-chloro-1,3-dimethyl-1H-pyrazole-4-sulfonyl-amino)-N-(4-(thiomorpholine-4-sulfonyl)-phenyl)-benzamide] came in with a n-fold stimulation of 31.2.
